Assay results from article PMC10331946, “Characterization of Natural Compounds as Inhibitors of NS1 Endonuclease from Canine Parvovirus Type 2” (Journal of Microbiology and Biotechnology, 2023).
Where “and” joins values, the source holds several entries; their conditions need not be identical. Equal values may be shown once. Read-outs that look alike come from different tables or passages of the source.

Molecular target: T1, CPV-2 NS1 endonuclease (Canine parvovirus type 2, UniProt P12929)
T1 construct: hexahistidine (N); hexahistidine (C); made in house; host or cells: E. coli BL21 (De3) pLysS
Assay: FRET nicking assay, inhibition of recombinant CPV-2 NS1 endonuclease
Assay type: biochemical, Canine parvovirus type 2 (CPV-2)
Conditions: for Inhibition (%) at 50 μM: 50 μM inhibitor; for IC50: single compounds, 1.25 μg endonuclease, pH 7.0, 300 mM NaCl, 37°C, curcumin by 4PL, others by linear regression
From the text: The fluorescence resonance energy transfer (FRET) substrate, which was composed of an oligonucleotide 5¢-TAA CCT TAC CAT AAG TA↓T CAA TCT GTC TTT-3¢ labeled with carboxyfluorescein (FAM) at the 5¢-terminus and black hole quencher 1 (BHQ1) at the 3¢-terminus as the energy transfer pair, was designed and synthesized by Bioneer Corp. (Korea) (Fig. S1).
cDNA of the CPV-2 NS1 endonuclease gene was synthesized after codon optimization (Genscript, USA) based on the N-terminal amino acid sequence (amino acids 1–277 of the DNA-binding region) of CPV-2 NS1 endonuclease (GenBank Accession No. AAV36764.1) (Fig. S2). The CPV-2 NS1 endonuclease gene was imbedded into the pET-28a (+) vector (Novagen, Germany) with hexahistidine tags at the N- and C-termini. The plasmids were transformed into E. coli BL21 (De3) pLysS (Invitrogen, USA) for expression. The transformed cells were cultured in 1 L of LB containing 30 μg/ml kanamycin at 37°C until the OD600 reached 0.6. Next, protein expression was induced with 1 mM isopropyl β-D-1-thiogalactopyranoside (IPTG) at 24°C for 20 h. Cells were harvested by centrifugation at 12,000 ×g for 25 min and 4°C. The pellet was resuspended in 50 ml 50 mM Tris-HCl buffer (pH 7.0) containing 300 mM NaCl and disrupted by sonication. After centrifugation at 12,000 ×g for 30 min and 4°C, the supernatant was applied to a Ni-NTA agarose column (Qiagen, Germany) and washed with 50 mM Tris-HCl buffer (pH 8.0) containing 300 mM NaCl and 20 mM imidazole. CPV-2 NS1 endonuclease was eluted with 50 mM Tris-HCl buffer (pH 8.0) containing 300 mM NaCl, and 250 mM imidazole, and dialyzed against 50 mM Tris-HCl (pH 7.0) containing 300 mM NaCl at 4°C overnight. The purified protein was stored at −20°C until required.
CPV-2 NS1 endonuclease activity was measured using an FRET substrate as described above. The reaction mixture was composed of 1.25 μg endonuclease and 0.6 μM FRET in 50 mM Tris-HCl buffer (pH 7.0). The reaction was run at 37°C with continuous monitoring of fluorescence for 10 min. Relative fluorescence units (RFUs) were measured using a SpectraMax M3 fluorescence plate reader (Molecular Devices, USA) with an excitation wavelength of 495 nm and an emission wavelength of 517 nm.
Thirty-one compounds, extracted sesame cake, turmeric, and yerba mate were tested for inhibitory effects against CPV-2 NS1 endonuclease. For screening, thirty-one compounds, turmeric, and yerba mate were dissolved in dimethyl sulfoxide (DMSO) to 5 mM or 10 mg/ml as stock solutions. Sesame cake extract (10 mg/ml) was solubilized in water. The reaction was initiated by adding 0.6 μM FRET substrate to a mixture of 50 μM compound and 1.25 μg endonuclease in 50 mM Tris-HCl buffer (pH 7.0) containing 300 mM NaCl. The reaction was run at 37°C for 3 min using a SpectraMax M3 fluorescence plate reader with an excitation wavelength of 495 nm and emission wavelength of 517 nm. Inhibitory activity was calculated using the following equation:
Inhibition activity (%) 100-[(S-S0)÷(C-C0)]×100
where C is RFU of the control (enzyme, buffer, and substrate) after a 3 min reaction, C0 is the RFU of the control at 0 min, S is the RFU of the sample (enzyme, buffer, inhibitor, and substrate) after 3 min, and S0 is the RFU of the sample at 0 min.
We determined the 50% inhibitory concentrations (IC50) of the six natural compounds, extracted turmeric, yerba mate, and sesame cake relative to the inhibitor-free control. The IC50 values of curcumin, and extracted sesame cake were calculated using a four-parameter logistic curve (4PL) using Prism v. 8 software (GraphPad Software Inc., USA). […] 8 software.

[1] = 0.6 μM FRET substrate, 1.25 μg enzyme, 50 mM Tris/HCl pH 7.0, 37°C, 3 min
[2] = pH 7, 50 μM inhibitor, 0.6 μM FRET substrate, 1.25 μg enzyme, 50 mM Tris/HCl pH 7.0, 37°C, 3 min, read-out: Inhibition (%) at 50 μM
[3] = pH 7, read-out: Inhibition (%) at 50 μM, 50 μM inhibitor, 0.6 μM FRET substrate, 1.25 μg enzyme, 50 mM Tris/HCl pH 7.0, 37°C, 3 min

T1 sequence (P12929 1-277): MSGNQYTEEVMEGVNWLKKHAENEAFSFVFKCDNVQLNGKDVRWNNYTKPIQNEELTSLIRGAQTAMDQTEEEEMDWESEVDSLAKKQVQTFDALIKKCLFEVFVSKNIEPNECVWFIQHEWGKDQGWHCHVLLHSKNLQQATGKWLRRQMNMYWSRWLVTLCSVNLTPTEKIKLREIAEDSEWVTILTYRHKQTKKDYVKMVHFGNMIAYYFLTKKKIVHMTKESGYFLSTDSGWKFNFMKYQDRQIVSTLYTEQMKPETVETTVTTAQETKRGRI

SMILES | Inhibition (%) at 50 μM [1] | inhibition at 50 µM [2] [%] | other results
c1cc2c(cc1[C@H]1OC[C@H]3[C@@H]1CO[C@@H]3c1ccc3c(c1)OCO3)OCO2 [(+)-Sesamin] | did not inhibit | 0 | –
O=c1c(O[C@@H]2O[C@H](CO)[C@@H](O)[C@H](O)[C@H]2O)c(-c2ccc(O)cc2)oc2cc(O)cc(O)c12 [Astragalin] | did not inhibit | 0 | –
O=C(/C=C/c1ccc(O)cc1)CC(=O)/C=C/c1ccc(O)cc1 [Bisdemethoxycurcumin] | 100% | – | inhibition at 50 µM [3]: > 95%; IC50 (0.6 μM FRET substrate, 3 min): 450 ± 50 nM
O=C(O)/C=C/c1ccc(O)c(O)c1 [Caffeic acid] | 42 ± 8% | – | Inhibition (%) at 50 μM (0.6 μM FRET substrate, 1.25 μg enzyme, 50 mM Tris/HCl pH 7.0, 37°C, 3 min, listed as caffeic acid): < 50% and > 29%
Cn1c(=O)c2c(ncn2C)n(C)c1=O [Caffeine] | 7 ± 7% | – | Inhibition (%) at 50 μM (0.6 μM FRET substrate, 1.25 μg enzyme, 50 mM Tris/HCl pH 7.0, 37°C, 3 min, listed as caffeine): < 50%
O=C(/C=C/c1ccc(O)c(O)c1)O[C@@H]1C[C@](O)(C(=O)O)C[C@@H](O)[C@H]1O [Chlorogenic acid] | 29 ± 4% | – | Inhibition (%) at 50 μM (0.6 μM FRET substrate, 1.25 μg enzyme, 50 mM Tris/HCl pH 7.0, 37°C, 3 min, listed as chlorogenic acid): < 50% and > 29%
O=c1c(-c2ccc(O)cc2)coc2cc(O)ccc12 [Daidzein] | 22 ± 12% | – | Inhibition (%) at 50 μM (0.6 μM FRET substrate, 1.25 μg enzyme, 50 mM Tris/HCl pH 7.0, 37°C, 3 min, listed as daidzein): < 50%
COc1cc(/C=C/C(=O)CC(=O)/C=C/c2ccc(O)cc2)ccc1O [Demethoxycurcumin] | 100% | – | inhibition at 50 µM [3]: > 95%; IC50 (0.6 μM FRET substrate, 3 min): 630 ± 10 nM
O=C(O[C@@H]1Cc2c(O)cc(O)cc2O[C@@H]1c1cc(O)c(O)c(O)c1)c1cc(O)c(O)c(O)c1 [EGCG, epigallocatechin gallate] | 49 ± 6% | – | Inhibition (%) at 50 μM (0.6 μM FRET substrate, 1.25 μg enzyme, 50 mM Tris/HCl pH 7.0, 37°C, 3 min, listed as epigallocatechin gallate): < 50%
COc1cc(/C=C/C(=O)O)ccc1O [Ferulic acid] | 37 ± 5% | – | Inhibition (%) at 50 μM (0.6 μM FRET substrate, 1.25 μg enzyme, 50 mM Tris/HCl pH 7.0, 37°C, 3 min, listed as ferulic acid): < 50%
O=c1c(O)c(-c2ccc(O)c(O)c2)oc2cc(O)ccc12 [Fisetin] | did not inhibit | 0 | –
O=C(O)c1cc(O)c(O)c(O)c1 [Gallic acid] | 2 ± 2% | – | Inhibition (%) at 50 μM (0.6 μM FRET substrate, 1.25 μg enzyme, 50 mM Tris/HCl pH 7.0, 37°C, 3 min, listed as gallic acid): < 50%
O=c1c(-c2ccc(O)cc2)coc2cc(O)cc(O)c12 [Genistein] | 45 ± 14% | – | inhibition at 50 µM [3]: < 50%
O=C1O[C@H]([C@@H](O)CO)C(O)=C1O [L-Ascorbic acid] | did not inhibit | 0 | –
C[N+](C)(C)C[C@H](O)CC(=O)[O-] [L-carnitine] | < 50% and 29 ± 2% | – | –
CCCCC/C=C\C/C=C\CCCCCCCC(=O)O [Linoleic acid] | 100% | – | inhibition at 50 µM [3]: > 95%; IC50 (0.6 μM FRET substrate, 3 min): 1140 ± 40 nM
O=c1c2cc(O)c(O)cc2oc2cc(O)c([C@@H]3O[C@H](CO)[C@@H](O)[C@H](O)[C@H]3O)c(O)c12 [Mangiferin] | did not inhibit | 0 | –
O=c1c(O)c(-c2cc(O)c(O)c(O)c2)oc2cc(O)cc(O)c12 [Myricetin] | did not inhibit | 0 | –
O=C1C[C@@H](c2ccc(O)cc2)Oc2cc(O)cc(O)c21 [Naringenin] | did not inhibit | 0 | –
CC1(C)CC[C@]2(C(=O)O)CC[C@]3(C)C(=CC[C@@H]4[C@@]5(C)CC[C@H](O)C(C)(C)[C@@H]5CC[C@]43C)[C@@H]2C1 [Oleanolic acid] | 51 ± 7% | – | Inhibition (%) at 50 μM (0.6 μM FRET substrate, 1.25 μg enzyme, 50 mM Tris/HCl pH 7.0, 37°C, 3 min, listed as oleanolic acid): > 29%
O=C(/C=C/C=C/c1ccc2c(c1)OCO2)N1CCCCC1 [Piperine] | did not inhibit | 0 | –
O=c1c(O)c(-c2ccc(O)c(O)c2)oc2cc(O)cc(O)c12 [Quercetin] | 51 ± 3% | – | Inhibition (%) at 50 μM (0.6 μM FRET substrate, 1.25 μg enzyme, 50 mM Tris/HCl pH 7.0, 37°C, 3 min, listed as quercetin): > 29%
Oc1ccc(/C=C/c2cc(O)cc(O)c2)cc1 [Resveratrol] | did not inhibit | 0 | –
C[C@@H]1O[C@@H](OC[C@H]2O[C@@H](Oc3c(-c4ccc(O)c(O)c4)oc4cc(O)cc(O)c4c3=O)[C@H](O)[C@@H](O)[C@@H]2O)[C@H](O)[C@H](O)[C@H]1O [Rutin] | did not inhibit | 0 | –
Oc1ccc2c(c1)OCO2 [Sesamol] | 9 ± 5% | – | Inhibition (%) at 50 μM (0.6 μM FRET substrate, 1.25 μg enzyme, 50 mM Tris/HCl pH 7.0, 37°C, 3 min, listed as sesamol): < 50%
c1cc2c(cc1O[C@H]1OC[C@H]3[C@@H]1CO[C@@H]3c1ccc3c(c1)OCO3)OCO2 [Sesamolin] | did not inhibit | 0 | –
C[C@H]1[C@H](C)CC[C@]2(C(=O)O)CC[C@]3(C)C(=CC[C@@H]4[C@@]5(C)CC[C@H](O)C(C)(C)[C@@H]5CC[C@]43C)[C@H]12 [Ursolic acid] | 29 ± 5% | – | Inhibition (%) at 50 μM (0.6 μM FRET substrate, 1.25 μg enzyme, 50 mM Tris/HCl pH 7.0, 37°C, 3 min, listed as ursolic acid): < 50% and > 29%
CC1=C(C/C=C(\C)CCC[C@H](C)CCC[C@H](C)CCCC(C)C)C(=O)c2ccccc2C1=O [Vitamin K1] | – | 68 ± 15 | –
Cc1c(C)c2c(c(C)c1O)CC[C@@](C)(CCC[C@H](C)CCC[C@H](C)CCCC(C)C)O2 [α-Tocopherol (Vitamin E), α-Tocopherol] | 98 ± 3% | – | inhibition at 50 µM [3]: > 95%; IC50 (0.6 μM FRET substrate, 3 min): 8030 ± 800 nM
